pIC50: −log10 of the molar value.
Legend:
[1] = target: T1, Human KIF18A (amino acid sequence 1-417) (Homo sapiens, UniProt Q8NI77); test: Enzymatic activity test (ADP-Glo, microtubule-stimulated KIF18A ATPase); type: biochemical; details: 60 μg/mL microtubules, 25 μM ATP, 2.5 nM KIF18A protein, 120 min at ambient temperature, read-out: KIF18A_nM
T1 construct: purchased Viva Biotech (Shanghai) Ltd
T1 sequence (Q8NI77 1-417): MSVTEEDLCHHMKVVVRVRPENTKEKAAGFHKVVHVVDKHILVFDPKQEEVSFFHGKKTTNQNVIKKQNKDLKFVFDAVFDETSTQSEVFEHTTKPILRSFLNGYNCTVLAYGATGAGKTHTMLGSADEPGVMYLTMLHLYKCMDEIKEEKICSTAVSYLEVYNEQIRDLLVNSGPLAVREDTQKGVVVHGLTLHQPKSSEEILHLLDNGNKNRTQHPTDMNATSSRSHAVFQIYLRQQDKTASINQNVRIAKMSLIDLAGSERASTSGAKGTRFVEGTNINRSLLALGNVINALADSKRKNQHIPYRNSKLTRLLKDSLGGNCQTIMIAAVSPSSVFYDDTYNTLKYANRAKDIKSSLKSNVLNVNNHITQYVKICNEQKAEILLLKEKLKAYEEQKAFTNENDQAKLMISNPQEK
Experimental: Human KIF18A (amino acid sequence 1-417) was purchased from Viva Biotech (Shanghai) Ltd.; the ADP-Glo™ protein kinase kit was acquired from Promega, USA; tubulin was sourced from Cytoskeleton, USA; and the 384-well assay plate and Envision multifunctional microplate reader were obtained from PerkinElmer, USA.
Dissolve the compound powder in DMSO to prepare a stock solution of 10 mM. Then perform gradient dilution for the compounds in the microplate to achieve a final concentration of 0-10 μM. Then, add 2.5 μL each of tubulin, compound, ATP, and KIF18A protein to the microplate in sequence for reaction at ambient temperature for 120 min. The final concentrations in the enzyme reaction are 60 μg/mL for microtubules, 25 μM for ATP, and 2.5 nM for KIF18A protein. After the enzyme reaction, add 10 μL of ADP-GLO reaction reagent to each well and incubate at ambient temperature for 30 min. After that, add 20 μL of detection reagent to each well and incubate at ambient temperature for 30 min in the dark. Finally, perform chemiluminescence detection using the PerkinElmer Envision.

[2] = tested on: OVCAR3 cells; test: Cell proliferation activity test in OVCAR3 cells (CyQUANT Direct); type: cell-based; details: Homo sapiens, OVCAR-3, 72 h, 3 days incubation, CyQUANT fluorescence detection, read-out: OVCAR-3_IC50_nM
Experimental: OVCAR3 cells were purchased from Nanjing Cobioer Biosciences Co., Ltd. RPMI-1640 medium, fetal bovine serum, and the CyQUANT Direct Cell Proliferation Assay kit were purchased from Thermo Fisher Scientific, USA; 96-well cell culture plates were sourced from Corning, USA.
Culture OVCAR3 cells with RPMI-1640 medium containing 10% fetal bovine serum and incubate them in a 5% CO2 incubator at 37° C. Only cells in the logarithmic growth phase can be used for the test.
Inoculate OVCAR3 cells into a 96-well cell culture plate at 90 μL per well and incubate overnight in a 5% CO2 incubator at 37° C. Dissolve the compound powder in DMSO to prepare a stock solution of 10 mM. Then perform gradient dilution for the compounds in the microplate to achieve a final concentration of 0-10 μM. Add 10 μL of cell culture medium containing compounds to each well to make the final DMSO content 0.2%. Incubate the cell plates in a 5% CO2 incubator at 37° C. for 3 days. Add 100 μL of CyQUANT detection reagent to each well, react at 37° C. for 60 min, and perform fluorescence detection using the PerkinElmer Envision.

[3] = tested on: HT29 cells; test: CyQuant cell proliferation activity test in HT29 cells; type: cell-based; details: Homo sapiens, HT-29, 72 h, 2000 cells per well, 3 days incubation, IC50 by XLFIT, read-out: HT29_IC50_nM
Experimental: HT29 cells were purchased from Nanjing Cobioer Biosciences Co., Ltd.; RPMI-1640 medium, fetal bovine serum, Trypsin-EDTA (0.25%), 96-well plates, and CyQuant reagents were purchased from ThermoFisher (USA); DMSO was purchased from SIGMA (USA).
Culture HT29 cells with RPMI-1640 containing 10% fetal bovine serum under the condition of 37° C. and 5% CO2. Only cells in the logarithmic growth phase can be used for the test.
Use the CyQuant reagent to detect the proliferation inhibitory activity of compounds on HT29 cells. Adjust the cell density and inoculate 100 μL per well into the 96-well plate (HT29 at 2000 cells per well), then incubate overnight under the condition of 37° C. and 5% CO2. Add compounds of various target concentrations (initial concentration of 3000 nM, 3-fold dilution, 9 concentration gradients), and make the DMSO content 0.2%. Incubate the cell plates at 37° C. and 5% CO2 for 3 days. Incubate with CyQuant reagent for 1 h, read the plate by Envision, and calculate IC50 using XLFIT.

Row | SMILES | pIC50 [1] | pIC50 [2] | pIC50 [3]
1 | O=C(Nc1nc2c(c(N3CCC(F)(F)CC3)n1)COC2)c1ccc(NS(=O)(=O)CCO)cc1N1CCC2(CC1)CC2 [Example 4, N-(4-(4,4-difluoropiperidin-1-yl)-5,7-dihydrofuro[3,4-d]pyrimidin-2-yl)-4-(2-hydroxyethylsulfonamido)-2-(6-azaspiro[2.5]octan-6-yl)benzamide] | 7.54 | 5.87 | 5.70
2 | O=C(Nc1cc2c(c(N3CCC(F)(F)CC3)n1)COC2)c1ccc(NS(=O)(=O)CCO)cc1N1CCC2(CC1)CC2 [Example 5, N-(4-(4,4-difluoropiperidin-1-yl)-1,3-dihydrofuro[3,4-c]pyridin-6-yl)-4-(2-hydroxyethylsulfonamido)-2-(6-azaspiro[2.5]octan-6-yl)benzamide] | 7.55 | 8.22 | 8.15
3 | O=C(Nc1nc2c(c(N3CCC(F)(F)CC3)n1)CNC2)c1ccc(NS(=O)(=O)CCO)cc1N1CCC2(CC1)CC2 [Example 7, N-(4-(4,4-difluoropiperidin-1-yl)-6,7-dihydro-5H-pyrrolo[3,4-d]pyrimidin-2-yl)-4-(2-hydroxyethylsulfonamido)-2-(6-azaspiro[2.5]octan-6-yl)benzamide] | 7.00 | < 5.00 | < 5.00
4 | CN1Cc2nc(NC(=O)c3ccc(NS(=O)(=O)CCO)cc3N3CCC4(CC3)CC4)nc(N3CCC(F)(F)CC3)c2C1 [Example 8, N-(4-(4,4-difluoropiperidin-1-yl)-6-methyl-6,7-dihydro-5H-pyrrolo[3,4-d]pyrimidin-2-yl)-4-(2-hydroxyethylsulfonamido)-2-(6-azaspiro[2.5]octan-6-yl)benzamide] | 6.55 | < 5.52 | < 5.52
5 | CC1OCc2c1cc(NC(=O)c1ccc(NS(=O)(=O)CCO)cc1N1CCC3(CC1)CC3)nc2N1CCC(F)(F)CC1 (centres unmarked) [Example 9, N-(4-(4,4-difluoropiperidin-1-yl)-1-methyl-1,3-dihydrofuro[3,4-c]pyridin-6-yl)-4-((2-hydroxyethyl)sulfonamido)-2-(6-azaspiro[2.5]octan-6-yl)benzamide] | 7.31 | 7.26 | 7.43
6 | CCC1(C)OCc2c1cc(NC(=O)c1ccc(NS(=O)(=O)CCO)cc1N1CCC3(CC1)CC3)nc2N1CCC(F)(F)CC1 (centres unmarked) [Example 10, N-(4-(4,4-difluoropiperidin-1-yl)-1-ethyl-1-methyl-1,3-dihydrofuro[3,4-c]pyridin-6-yl)-4-(2-hydroxyethylsulfonamido)-2-(6-azaspiro[2.5]octan-6-yl)benzamide] | 5.56 | 6.21 | 5.90
7 | O=C(Nc1cn2cccc2c(N2CCC(F)(F)CC2)n1)c1ccc(NS(=O)(=O)CCO)cc1N1CCC2(CC1)CC2 [Example 11, N-(1-(4,4-difluoropiperidin-1-yl)pyrrolo[1,2-a]pyrazin-3-yl)-4-(2-hydroxyethylsulfonamido)-2-(6-azaspiro[2.5]octan-6-yl)benzamide] | 6.72 | 7.55 | 7.55
8 | Cc1ncc2c(N3CCC(F)(F)CC3)nc(NC(=O)c3ccc(NS(=O)(=O)CCO)cc3N3CCC4(CC3)CC4)cn12 [Example 12, N-(8-(4,4-difluoropiperidin-1-yl)-3-methylimidazo[1,5-a]pyrazin-6-yl)-4-(2-hydroxyethylsulfonamido)-2-(6-azaspiro[2.5]octan-6-yl)benzamide] | 7.10 | 7.10 | 6.99
9 | O=C(Nc1cn2ccnc2c(N2CCC(F)(F)CC2)n1)c1ccc(NS(=O)(=O)CCO)cc1N1CCC2(CC1)CC2 [Example 13, N-(8-(4,4-difluoropiperidin-1-yl)imidazolo[1,2-a]pyrazin-6-yl)-4-((2-hydroxyethyl)sulfonamide)-2-(6-azaspiro[2.5]octan-6-yl)benzamide] | 7.57 | 8.05 | 7.89
10 | O=C(Nc1cc(N2CCC(F)(F)CC2)c2nccn2c1)c1ccc(NS(=O)(=O)CCO)cc1N1CCC2(CC1)CC2 [Example 14, N-(8-(4,4-difluoropiperidin-1-yl)imidazo[1,2-a]pyridin-6-yl)-4-((2-hydroxyethyl)sulfonamido)-2-(6-azaspiro[2.5]oct-6-yl)benzamide] | 7.49 | 8.05 | 7.77
11 | Cc1nc2c(N3CCC(F)(F)CC3)nc(NC(=O)c3ccc(NS(=O)(=O)CCO)cc3N3CCC4(CC3)CC4)cn2c1C [Example 15] | 6.69 | 7.15 | 7.01
12 | O=C(Nc1cn2ncnc2c(N2CCC(F)(F)CC2)n1)c1ccc(NS(=O)(=O)CCO)cc1N1CCC2(CC1)CC2 [Example 16] | 7.54 | 7.48 | 7.25
13 | O=C(Nc1cn2nccc2c(N2CCC(F)(F)CC2)n1)c1ccc(NS(=O)(=O)CCO)cc1N1CCC2(CC1)CC2 [Example 17] | 7.55 | 7.70 | 7.52
14 | O=C(Nc1cc(N2CCC(F)(F)CC2)c2ncnn2c1)c1ccc(NS(=O)(=O)CCO)cc1N1CCC2(CC1)CC2 [Example 18] | 7.92 | 7.80 | 7.46
15 | O=C(Nc1cn2cnnc2c(N2CCC(F)(F)CC2)n1)c1ccc(NS(=O)(=O)CCO)cc1N1CCC2(CC1)CC2 [Example 19, N-(8-(4,4-difluoropiperidin-1-yl)-[1,2,4]triazolo[4,3-a]pyrazin-6-yl)-4-((2-hydroxyethyl)sulfonamido)-2-(6-azaspiro[2.5]oct-6-yl)benzamide] | 7.89 | 7.74 | 7.55
16 | O=C(Nc1cc2cccn2c(N2CCC(F)(F)CC2)n1)c1ccc(NS(=O)(=O)CCO)cc1N1CCC2(CC1)CC2 [Example 20, N-(1-(4,4-difluoropiperidin-1-yl)pyrrolo[1,2-c]pyrimidin-3-yl)-4-(2-hydroxyethylsulfonamido)-2-(6-azaspiro[2.5]octan-6-yl)benzamide] | – | 7.74 | 7.64
17 | O=C(Nc1cc2ncnn2c(N2CCC(F)(F)CC2)n1)c1cc(F)c(NS(=O)(=O)CCO)cc1N1CCC2(CC1)CC2 [Example 25, (2-(6-azaspiro[2.5]oct-6-yl)-5-fluoro-4-{[(2-hydroxyethyl)sulphonyl]amino}phenyl)-N-[5-(4,4-difluoropiperidinyl)(4-hydro-1,2,4-triazolo[4,3-e]pyrimidin-7-yl)]formamide] | 8.30 | 7.34 | 7.08
18 | Cc1nnc2cc(NC(=O)c3ccc(NS(=O)(=O)CCO)cc3N3CCC4(CC3)CC4)nc(N3CCC(F)(F)CC3)n12 [Example 27, N-(5-(4,4-difluoropiperidin-1-yl)-3-methyl-[1,2,4]triazolo[4,3-c]pyrimidin-7-yl)-4-(2-hydroxyethylsulfonamido)-2-(6-azaspiro[2.5]octan-6-yl)benzamide] | 7.89 | 7.64 | 7.48

— patent US20260159500A1, “KINESIN KIF18A INHIBITOR AND USE THEREOF” (SHANGHAI APEIRON THERAPEUTICS COMPANY LIMITED, priority 2022, published 2026)
